pIC50: −log10 of the molar value. Structures can show the parent of a compound that is named as a salt.
Target: SHP2 (Homo sapiens (Human), UniProt Q06124)
Assay: SHP2 Allosteric Inhibition Assay (DiFMUP prompt fluorescence)
Assay type: biochemical
Conditions: 0.25 nM SHP2 activated with 0.5 μM peptide IRS1_pY1172(dPEG8)pY1222; substrate DiFMUP 100 μM; 25° C.

| Compound | pIC50 |
| --- | --- |
| CCn1cc(-c2ccc3c(n2)CCCN3c2n[nH]c3nc(N4CCC5(CC4)CO[C@@H](C)[C@H]5N)cnc23)cn1 [Compound 334, (3S,4S)-8-{3-[6-(1-ethyl-1H-pyrazol-4-yl)-1,2,3,4-tetrahydro-1,5-naphthyridin-1-yl]-1H-pyrazolo[3,4-b]pyrazin-6-yl}-3-methyl-2-oxa-8-azaspiro[4.5]decan-4-amine] | > 6.00 |
| C[C@@H]1OCC2(CCN(c3cnc4c(N5CCc6cccnc6C5)n[nH]c4n3)CC2)[C@@H]1N [Compound 271] | > 6.00 |
| Cc1nnc2c(-c3cccc4c3CCCN4c3n[nH]c4nc(N5CCC(C)(CN)CC5)cnc34)cccn12 [Compound 73] | > 6.00 |
| C[C@@H]1OCC2(CCN(c3cnc4c(N5CCN(C)c6cnncc65)n[nH]c4n3)CC2)[C@@H]1N [Compound 414] | 5.00 to 6.00 |
| CNC(=O)CN1CCN(c2n[nH]c3nc(N4CCC5(CC4)CO[C@@H](C)[C@H]5N)cnc23)c2ccc(C#N)cc21 [Compound 399] | > 6.00 |
| C[C@@H]1CCN(c2n[nH]c3nc(N4CCC5(CC4)CO[C@@H](C)[C@H]5N)cnc23)c2ccc(C(=O)N(C)C)nc21 [Compound 347, (8R)-5-{6-[(3S,4S)-4-amino-3-methyl-2-oxa-8-azaspiro[4.5]decan-8-yl]-1H-pyrazolo[3,4-b]pyrazin-3-yl}-N,N,8-trimethyl-5,6,7,8-tetrahydro-1,5-naphthyridine-2-carboxamide] | > 6.00 |
| C[C@@H]1OCC2(CCN(c3cnc4c(N5CCC(C(F)F)c6ccccc65)n[nH]c4n3)CC2)[C@@H]1N (some centres unmarked) [Compound 250] | > 6.00 |
| C[C@@H]1OCC2(CCN(c3cnc4c(N5CCCc6ncsc65)n[nH]c4n3)CC2)[C@@H]1N [Compound 531] | > 6.00 |
| C[C@@H]1CCN(c2n[nH]c3nc(N4CCC(C)(CN)CC4)cnc23)c2ccc(C#N)cc21 (single isomer, unassigned) [Compound 115] | > 6.00 |
| CC1(CN)CCN(c2cnc3c(N4CCCc5c(-c6cccnc6)cccc54)n[nH]c3n2)CC1 [Compound 66] | > 6.00 |
| CC1(CN)CCN(c2cnc3c(N4CCCc5c(-c6ccccc6)cccc54)n[nH]c3n2)CC1 [Compound 65] | > 6.00 |
| CC1(CN)CCN(c2cnc3c(N4CCN(c5cccnc5)c5ccccc54)n[nH]c3n2)CC1 [Compound 68] | > 6.00 |
| C[C@@H]1C[C@@H](N)CCN1c1cnc2c(N3CCCc4ncccc43)n[nH]c2n1 (stereo in doubt) [Compound 24, rel-(2R,4S)-1-(3-(3,4-Dihydro-1,5-naphthyridin-1(2H)-yl)-1H-pyrazolo[3,4-b]pyrazin-6-yl)-2-methylpiperidin-4-amine] | > 6.00 |
| CNC(=O)c1ccc2c(c1)CCN2c1n[nH]c2nc(N3CCC(C)(CN)CC3)cnc12 [Compound 113, 1-(6-(4-(aminomethyl)-4-methylpiperidin-1-yl)-1H-pyrazolo[3,4-b]pyrazin-3-yl)-N-methylindoline-5-carboxamide] | > 6.00 |
| C[C@H]1CCN(c2n[nH]c3nc(N4CCC(C)(CN)CC4)cnc23)c2ccc(-c3ncon3)cc21 [Compound 183, 1-(4-methyl-1-{3-[(4S)-4-methyl-6-(1,2,4-oxadiazol-3-yl)-1,2,3,4-tetrahydroquinolin-1-yl]-1H-pyrazolo[3,4-b]pyrazin-6-yl}piperidin-4-yl)methanamine] | > 6.00 |
| C[C@@H]1OCC2(CCN(c3cnc4c(N5CCCc6c(CN7CCOC7=O)cccc65)n[nH]c4n3)CC2)[C@@H]1N [Compound 459] | > 6.00 |
| CC1(CN)CCN(c2cnc3c(N4CCCc5cc(-c6ncon6)ccc54)n[nH]c3n2)CC1 [Compound 172, (1-(3-(6-(1,2,4-oxadiazol-3-yl)-3,4-dihydroquinolin-1(2H)-yl)-1H-pyrazolo[3,4-b]pyrazin-6-yl)-4-methylpiperidin-4-yl)methanamine] | > 6.00 |
| Cn1cc(-c2ccc3c(n2)CCCN3c2n[nH]c3nc(N4CCC(C)(CN)CC4)cnc23)cn1 [Compound 182] | > 6.00 |
| CCC1CCN(c2n[nH]c3nc(N4CCC(C)(CN)CC4)cnc23)c2ccccc21 (single isomer, unassigned) [Compound 103, hydrochloride] | > 6.00 |
| CC(=O)N1CC(N2CCN(c3n[nH]c4nc(N5CCC6(CC5)CO[C@@H](C)[C@H]6N)cnc34)c3ccc(C#N)cc32)C1 [Compound 471] | > 6.00 |
| C[C@@H]1OCC2(CCN(c3cnc4c(N5CCN(CC(=O)N(C)C)c6cc(C#N)ccc65)n[nH]c4n3)CC2)[C@@H]1N [Compound 453, 2-(4-{6-[(3S,4S)-4-amino-3-methyl-2-oxa-8-azaspiro[4.5]decan-8-yl]-1H-pyrazolo[3,4-b]pyrazin-3-yl}-7-cyano-1,2,3,4-tetrahydroquinoxalin-1-yl)-N,N-dimethylacetamide] | > 6.00 |
| C[C@@H]1OCC2(CCN(c3cnc4c(N5CCN(S(C)(=O)=O)c6ccccc65)n[nH]c4n3)CC2)[C@@H]1N [Compound 325] | > 6.00 |
| C[C@@H]1OCC2(CCN(c3cnc4c(N5CCNc6cc(-c7ccnnc7)ccc65)n[nH]c4n3)CC2)[C@@H]1N [Compound 332] | > 6.00 |
| CCS(=O)(=O)c1cccc2c1CCCN2c1n[nH]c2nc(N3CCC4(CC3)CO[C@@H](C)[C@H]4N)cnc12 [Compound 368] | > 6.00 |
| C[C@@H]1OCC2(CCN(c3cnc4c(N5CCCc6c(NS(C)(=O)=O)cccc65)n[nH]c4n3)CC2)[C@@H]1N [Compound 343, N-(1-{6-[(3S,4S)-4-amino-3-methyl-2-oxa-8-azaspiro[4.5]decan-8-yl]-1H-pyrazolo[3,4-b]pyrazin-3-yl}-1,2,3,4-tetrahydroquinolin-5-yl)methanesulfonamide] | > 6.00 |
| C[C@@H]1OCC2(CCN(c3cnc4c(N5CCC(=C(F)F)c6ccccc65)n[nH]c4n3)CC2)[C@@H]1N [Compound 231] | > 6.00 |
| C[C@H]1C[C@H](N)CCN1c1cnc2c(N3CCCc4ncccc43)n[nH]c2n1 (stereo in doubt) [Compound 25, rel-(2S,4R)-1-(3-(3,4-dihydro-1,5-naphthyridin-1(2H)-yl)-1H-pyrazolo[3,4-b]pyrazin-6-yl)-2-methylpiperidin-4-amine] | > 6.00 |

Next, values leading:

| pIC50 | Compound |
| --- | --- |
| > 6.00 | C[C@@H]1OCC2(CCN(c3cnc4c(N5CCCc6nc(/C=N\O)ccc65)n[nH]c4n3)CC2)[C@@H]1N [Compound 436, (3S,4S)-8-(3-{6-[(1Z)-(hydroxyimino)methyl]-1,2,3,4-tetrahydro-1,5-naphthyridin-1-yl}-1H-pyrazolo[3,4-b]pyrazin-6-yl)-3-methyl-2-oxa-8-azaspiro[4.5]decan-4-amine hydrochloride] |
| > 6.00 | CNC(=O)c1ccc2c(n1)CCCN2c1n[nH]c2nc(N3CCC4(CC3)CO[C@@H](C)[C@H]4N)cnc12 [Compound 282, 5-(6-((3S,4S)-4-amino-3-methyl-2-oxa-8-azaspiro[4.5]decan-8-yl)-1H-pyrazolo[3,4-b]pyrazin-3-yl)-N-methyl-5,6,7,8-tetrahydro-1,5-naphthyridine-2-carboxamide] |
| > 6.00 | CC1(N)CCN(c2cnc3c(N4CCOc5ncccc54)n[nH]c3n2)CC1 [Compound 31] |
| > 6.00 | CC1(CN)CCN(c2cnc3c(N4CCCc5cc(C#N)ccc54)n[nH]c3n2)CC1 [Compound 77] |
| ≤ 5.00 | c1cncc(COC2CCCN(c3cnc4c(N5CCCc6ncccc65)n[nH]c4n3)C2)c1 (centres unmarked) [Compound 156] |
| > 6.00 | CC1(CN)CCN(c2cnc3c(N4CCCc5c(Cl)cccc54)n[nH]c3n2)CC1 [Compound 130] |
| > 6.00 | C[C@@H]1OCC2(CCN(c3cnc4c(N5CCCc6c5cccc6[N+](=O)[O-])n[nH]c4n3)CC2)[C@@H]1N [Compound 373] |
| > 6.00 | C[C@@H]1OCC2(CCN(c3cnc4c(N5CCNc6ccccc65)n[nH]c4n3)CC2)[C@@H]1N [Compound 234] |
| > 6.00 | CC1(N)CCN(c2cnc3c(Sc4ccnc(N)c4F)n[nH]c3n2)CC1 [Compound 489, 4-((6-(4-amino-4-methylpiperidin-1-yl)-1H-pyrazolo[3,4-b]pyrazin-3-yl)thio)-3-fluoropyridin-2-amine] |
| > 6.00 | CC1(CN)CCN(c2cnc3c(N4CCc5cc(C(N)=O)ccc54)n[nH]c3n2)CC1 [Compound 114, 1-(6-(4-(aminomethyl)-4-methylpiperidin-1-yl)-1H-pyrazolo[3,4-b]pyrazin-3-yl)indoline-5-carboxamide] |
| > 6.00 | Cc1cccc2c1CCCN2c1n[nH]c2nc(N3CCC(C)(CN)CC3)cnc12 [Compound 46] |
| > 6.00 | C[C@@H]1OCC2(CCN(c3cnc4c(N5CC[C@H](C)c6nc(-c7ncc[nH]7)ccc65)n[nH]c4n3)CC2)[C@@H]1N (relative stereo) [Compound 449, (3S,4S)-8-{3-[(4R*)-6-(1H-imidazol-2-yl)-4-methyl-1,2,3,4-tetrahydro-1,5-naphthyridin-1-yl]-1H-pyrazolo[3,4-b]pyrazin-6-yl)-3-methyl-2-oxa-8-azaspiro[4.5]decan-4-amine hydrochloride] |
| > 6.00 | NCC1(N)CCN(c2cnc3c(N4CCCc5ncccc54)n[nH]c3n2)CC1 [Compound 179] |
| > 6.00 | CC1(CN)CCN(c2cnc3c(N4CCc5c(C#N)cccc54)n[nH]c3n2)CC1 [Compound 164] |
